From US4530907A, “Perfusion-cultivation of animal cells and equipment therefor” (priority 1981, dated 1985)

System: neuroblastoma cells
Conditions: not given
Text: The test system in question is based on cultivation of neuroblastoma cells C1300, 41A3 and the effect on these cells measured as general biological cell changes or biochemical changes, as a function of the content of toxic substances in the substrate. The cell line used is suitable for such measurements since its biology and biochemistry is well documented.
Examples of other parameters which can be used are ATP (adenosine triphosphate) content and LDH (lactate dehydrogenase) activity in the perfusion liquid. These function as indicators of membrane leakage and their concentration can be expected to increase after exposure. Another way of measuring membrane leakage is to study the outflow of an isotope-marked marker (see Example 5). It is also possible to measure the absorption of trypan blue in dead cells with the help of light absorption (see Example 4 and FIG. 4).
Determining LD50 values by means of cell death, measured as absorption of trypan blue
The accumulation of trypan blue (a stain which is taken up in dead cells) can be calculated with the help of light-absorption measurements.

SMILES | cell death in neuroblastoma cells, correlation with the LD50 values obtained from animal experiments
c1ccccc1 [benzene] | correlates well

Same assay, conditions: trypan blue absorption by light absorption; statement for all listed substances together

SMILES | cell death in neuroblastoma cells, correlation with the LD50 values obtained from animal experiments
CC(C)=O [acetone] | correlates well
Clc1ccc(C(c2ccc(Cl)cc2)C(Cl)(Cl)Cl)cc1 [pp-DDT] | correlates well
[Cl][Hg][Cl] [HgCl2] | correlates well
[Cl][Cd][Cl] [CdCl2] | correlates well
CCCCO [n-butanol] | correlates well
[K+].[K+].[O]=[Cr](=[O])([O-])[O][Cr](=[O])(=[O])[O-] [K2 Cr2 O7] | correlates well
C1COCCO1 [dioxane] | correlates well
CCCO [n-propanol] | correlates well
[CH3][Hg][Cl] [CH3 HgCl] | correlates well
